From patent US9518033B2, “(4E)-4-(4-substituted benzylideneamino)-2,3-dihydro-3-substituted-2-thioxothiazole-5-carbonitriles as A2AR antagonist and process for preparation thereof” (COUNCIL OF SCIENTIFIC & INDUSTRIAL RESEARCH, priority 2013, dated 2016) come the findings set out here.

Values joined by “and” are separate entries in the source; they are usually repeats but may differ in a detail not shown here. Equal entries are not always repeated.

Data set [1] addresses T1, human A2AR (Homo sapiens, UniProt P29274).
T1 construct: expressed in transfected cells; host or cells: HEK 293T
As to the kind of experiment: Radioligand competitive binding assay, [3H] ZM 241385 displacement. The following applies: for Ki: membranes of transfected HEK 293T cells, 1 nM [3H] ZM 241385, read-out: Ki A2A; for A1/A2A (selectivity): ratio Ki A1 / Ki A2A; for binding affinity and selectivity (in words): A2AR over A1R. Here is the method: Cells were washed twice with ice-cold PBS (pH 7.4). Pellet of washed cells was resuspended in hypotonic lysis buffer (10 mM NaCl, 2 mM MgCl2, 1 mM DTT, 10 mM Hepes, 2 mM PMSF, pH 7.4) and sonicated (4 cycles of 10 s duration each). Homogenate were centrifuged at 2,500 rpm for 10 minutes at 4° C. Resulting supernatants was again centrifuged at 38,000 rpm for 30 minutes at 4° C. Pellets obtained were resuspended in Tris-HCl (pH 7.4) buffer. […] Aliquots of membrane proteins from both A2AR and A1R were rapidly frozen and stored at −20° C. Radioligand [^3H] […] DPCPX were purchased from American Radiolabeled Chemicals, St. Louis, USA.
About 10 μg of membrane protein was added to each well of a 96-well filter plate. Incubation buffer containing adenosine deaminase (2.5 U/ml) was added to the membrane protein and incubated at 37° C. for 1 h, to remove endogenous adenosine. Varying concentrations (1 pM to 1 μM) of test compounds of general formula A was added in duplicate and volume was adjusted to 50 μl by adding incubation buffer. […] Filter plates were incubated at 26° C. for 30 minutes and reaction was terminated by rapid filtration of unbound radioligands. Filters containing ligand bound receptors were washed three times with ice-cold washing buffer to completely remove any unbound radioligand or receptor. Finally, 100 μl of scintillation fluid was added to each well and incubated overnight at room temperature. β-counts emitted from bound radioligands ([^3H] ZM241385 and [^3H] DPCPX) were counted using β-counter. Duplicate values of β-counts per minute at corresponding concentrations (1 pM to 1 μM) were added to the data sheet of graph pad prism 4.0. Concentration values were considered as X-values and counts per minute were considered as Y-values (in duplicate). X-values were transformed into log X and Ki value was calculated using nonlinear regression (curve fit program).

Data set [2] has as its target T2, human A2A receptors (Homo sapiens, UniProt P29274).
T2 construct: expressed in transfected cells; host or cells: HEK 293T
As to the kind of experiment: cAMP functional assay in NECA stimulated HEK293T cells. It is filed as cell-based. Here is the method:
Standard curve was prepared using Logit-Log Paper plot by drawing percent bound (B/Bo) versus concentration of cAMP for the standards. The concentration of the cAMP in the samples was determined by interpolation.

The subject of data set [3] is haloperidol induced catalepsy. As to the kind of experiment: Haloperidol induced catalepsy in mice. In kind it is in vivo, Swiss Albino male mice. The following applies: for catalepsy score: haloperidol 2.5 mg/kg, after 120 min. Here is the method: Adult Swiss Albino male mice (4-6 weeks, 20-30 g) were pro-cured from National Institute of Communicable Diseases, Delhi, India and were kept under controlled conditions of temperature (22±1° C.), humidity (60±5%), and illumination (12 h light; 12 h darkness) at the animal house, Dr. B. R. Ambedkar Centre for Bio-medical Research, University of Delhi, Delhi, India. The experimental protocol met the National Guidelines on the ‘Proper Care and Use of Animals in Laboratory Research’ (Indian National Science Academy, New Delhi) and was approved by the Animal Ethics Committee of the department. The procedures adhered to the NIH Guidelines for the Care and Use of Laboratory Animals.
Double distilled filtered and deionized water (Milli-Q-system Waters, Milford, Mass.) was used through out the study. […] Mice were divided into seven groups of four mice each. […] Saline and 1% acacia in saline were injected to two control groups.
The inability of an animal to correct an externally imposed posture (Catalepsy score) was measured at different time intervals with both limbs on a square wooden block (3 cm high) by placing the animals on a flat horizontal surface. The length of time that animals held the bar without any voluntary movement was recorded, with a cutoff time of 3 min. Catalepsy score of each mice in a group was taken to compute the mean value of the group.

Data set [4] has as its target T3, human A1R (Homo sapiens, UniProt P30542).
T3 construct: expressed in transfected cells; host or cells: HEK 293T
T3 sequence (P30542 1-326): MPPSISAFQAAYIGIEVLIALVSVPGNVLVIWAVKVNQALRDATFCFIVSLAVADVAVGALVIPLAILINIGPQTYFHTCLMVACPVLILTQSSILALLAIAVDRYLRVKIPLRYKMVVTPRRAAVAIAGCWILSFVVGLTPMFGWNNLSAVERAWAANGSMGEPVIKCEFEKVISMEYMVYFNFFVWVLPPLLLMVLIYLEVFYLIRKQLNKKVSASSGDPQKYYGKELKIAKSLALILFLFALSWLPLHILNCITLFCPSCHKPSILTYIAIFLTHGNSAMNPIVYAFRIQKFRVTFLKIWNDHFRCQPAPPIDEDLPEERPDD
The experiment in a line: Radioligand competitive binding assay, [3H] DPCPX displacement. The following applies: membranes of transfected HEK 293T cells, 1 nM [3H] DPCPX; read-out: Ki A1. The protocol:
About 1×10^6 cells per ml of transfected HEK 293T cells with human A2AR and A1R were centrifuged at 2,500 rpm for 2 minutes in 15 ml centrifuge tubes. Cells were washed twice with ice-cold PBS (pH 7.4). Pellet of washed cells was resuspended in hypotonic lysis buffer (10 mM NaCl, 2 mM MgCl2, 1 mM DTT, 10 mM Hepes, 2 mM PMSF, pH 7.4) and sonicated (4 cycles of 10 s duration each). Homogenate were centrifuged at 2,500 rpm for 10 minutes at 4° C. Resulting supernatants was again centrifuged at 38,000 rpm for 30 minutes at 4° C. Pellets obtained were resuspended in Tris-HCl (pH 7.4) buffer. Membrane protein concentrations were determined using Lowry method (Lowry et al., 1951). Aliquots of membrane proteins from both A2AR and A1R were rapidly frozen and stored at −20° C. Radioligand [^3H] ZM 241385 and [^3H] DPCPX were purchased from American Radiolabeled Chemicals, St. Louis, USA.
About 10 μg of membrane protein was added to each well of a 96-well filter plate. Incubation buffer containing adenosine deaminase (2.5 U/ml) was added to the membrane protein and incubated at 37° C. for 1 h, to remove endogenous adenosine. Varying concentrations (1 pM to 1 μM) of test compounds of general formula A was added in duplicate and volume was adjusted to 50 μl by adding incubation buffer. Further, constant concentration of radioligands (1 nM for [^3H] ZM 241385 and 1 nM of [^3H] DPCPX) was added to respective wells and final volume was adjusted to 200 μl by adding the incubation buffer. Filter plates were incubated at 26° C. for 30 minutes and reaction was terminated by rapid filtration of unbound radioligands. Filters containing ligand bound receptors were washed three times with ice-cold washing buffer to completely remove any unbound radioligand or receptor. Finally, 100 μl of scintillation fluid was added to each well and incubated overnight at room temperature. β-counts emitted from bound radioligands ([^3H] ZM241385 and [^3H] DPCPX) were counted using β-counter. Duplicate values of β-counts per minute at corresponding concentrations (1 pM to 1 μM) were added to the data sheet of graph pad prism 4.0. Concentration values were considered as X-values and counts per minute were considered as Y-values (in duplicate). X-values were transformed into log X and Ki value was calculated using nonlinear regression (curve fit program). The calculated Ki values for A2AR and A1R are given bellow (table 1).

[5] abbreviates: 10 mg/kg ip pre-treatment, mean±SEM, n=4.

T1 sequence (P29274 whole entry): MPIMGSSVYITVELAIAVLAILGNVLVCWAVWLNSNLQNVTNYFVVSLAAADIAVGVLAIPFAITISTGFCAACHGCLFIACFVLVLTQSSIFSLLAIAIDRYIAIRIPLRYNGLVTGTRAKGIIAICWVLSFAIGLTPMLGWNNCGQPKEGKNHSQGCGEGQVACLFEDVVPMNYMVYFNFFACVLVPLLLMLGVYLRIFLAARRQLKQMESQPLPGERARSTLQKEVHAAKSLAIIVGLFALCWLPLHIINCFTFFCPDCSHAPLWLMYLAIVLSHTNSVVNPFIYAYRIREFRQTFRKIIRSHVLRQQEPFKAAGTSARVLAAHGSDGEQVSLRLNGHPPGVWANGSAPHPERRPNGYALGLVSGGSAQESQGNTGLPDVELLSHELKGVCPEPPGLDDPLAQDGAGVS
T2 sequence (P29274 whole entry): as above

Broadly, the Ki is a dissociation constant, usually derived from enzyme kinetics or from competition with a known ligand. On to `CCn1c(/N=C/c2ccc(Br)cc2)c(C#N)sc1=S` [Compound 2j, (4E)-4-(4-Bromobenzylideneamino)-3-ethyl-2,3-dihydro-2-thioxothiazole-5-carbonitrile], for which, in data set [1], the Ki is 0.01 nM and the “A1/A2A (selectivity)” value came to 0.074.

As for `CCn1c(/N=C/c2ccc(F)cc2)c(C#N)sc1=S` [Compound 2a, (4E)-4-(4-fluorobenzylideneamino)-3-ethyl-2,3-dihydro-2-thioxothiazole-5-carbonitrile], in data set [1], the inhibitory constant (Ki) turned out to be 11 nM and the “A1/A2A (selectivity)” value was 0.000053.

Consider `Nc1nc2c(cnn2CCc2ccccc2)c2nc(-c3ccco3)nn12` [SCH58261, reference compound], for which the “selectivity to A2AR” value in data set [1] (reference SCH58261) is recorded as 483 fold. Moreover, the cAMP concentration in data set [2] turned out to be 0.55 pmol/mL. The catalepsy score in data set [3] (setting [5]) is 0.65±0.125; in data set [3] (10 mg/kg ip pre-treatment, mean±SEM, n=4, listed as SCH 58261), 0.625±0.125.

As for `CCCCn1c(/N=C/c2ccc(Cl)cc2)c(C#N)sc1=S` [Compound 2h], in data set [1], the “binding affinity and selectivity (in words)” value is “both high binding affinity and selectivity”; the inhibition constant (Ki) is 9.6 nM; the “A1/A2A (selectivity)” value was 2565 and 2565.62. In addition, the Ki in data set [4] worked out at 24600 nM.

One may read the melting point as the temperature, or range, at which the solid turns liquid. In turn, `N#Cc1sc(=S)n(-c2ccccc2)c1/N=C/c1ccc(Cl)cc1` [Compound 2i, (4E)4-(4-chlorobenzylideneamino)-3-phenyl-2,3-dihydro-2-thioxothiazole-5-carbonitrile] came in with a melting point of 187 to 189 °C. Further, in data set [1], the “binding affinity and selectivity (in words)” value is “both high binding affinity and selectivity”; the Ki amounted to 0.14 nM; the “A1/A2A (selectivity)” value is 2947 and 2947.85. In addition, in data set [4], the inhibitory constant (Ki) came to 413 nM.

As to `CCCCn1c(N=Cc2ccc(F)cc2)c(C#N)sc1=S` [Compound 2c, (4E)-4-flurobenzylideneamino)-3-butyl-2,3-dihydro-2-thioxothiazole-5-carbonitrile], in data set [1], the Ki came out at 0.027 nM and the “A1/A2A (selectivity)” value stood at 618.51. The Ki in data set [4] came out at 16.7 nM.

As for `CCCn1c(/N=C/c2ccc(Br)cc2)c(C#N)sc1=S` [Compound 2k, (4E)4-(4-bromobenzylideneamino)-3-propyl-2,3-dihydro-2-thioxothiazole-5-carbonitrile], the Ki in data set [1] was found to be 1.8 nM; in data set [4], 607 nM. Further, the “A1/A2A (selectivity)” value in data set [1] worked out at 337.05.

For the molecule `N#Cc1sc(=S)n(CCc2ccccc2)c1N=Cc1ccc(F)cc1` [Compound 2d, (4E)-4-(4-flurobenzylideneamino)-3-phenylethyl-2,3-dihydro-2-thioxothiazole-5-carbonitrile], in data set [1], the Ki stood at 2.64 nM and the “A1/A2A (selectivity)” value amounted to 336.81. For the same molecule, the Ki in data set [4] was 889 nM.

Take `CCCCn1c(/N=C/c2ccc(Br)cc2)c(C#N)sc1=S` [Compound 2l, (4E)-4-(4-bromobenzylideneamino)-3-butyl-2,3-dihydro-2-thioxothiazole-5-carbonitrile]: the figures for the inhibitory constant (Ki) in data set [1] and in data set [4] were 7.61 nM and 0.1 nM, respectively. Moreover, the “A1/A2A (selectivity)” value in data set [1] is recorded as 0.013.

Turning to `CCCn1c(/N=C/c2ccc(Cl)cc2)c(C#N)sc1=S` [Compound 2g, (4E)4-(4-chlorobenzylideneamino)-3-propyl-2,3-dihydro-2-thioxothiazole-5-carbonitrile], in data set [1], the Ki was found to be 54.8 nM and the “A1/A2A (selectivity)” value was found to be 0.042. The Ki in data set [4] was 2.32 nM.

On to `N#Cc1sc(=S)n(-c2ccccc2)c1/N=C/c1ccc(F)cc1` [Compound 2e, (4E)-4-(4-flurobenzylideneamino)-3-phenyl-2,3-dihydro-2-thioxothiazole-5-carbonitrile], for which, in data set [1], the Ki was 0.0047 nM and the “A1/A2A (selectivity)” value was 0.13.

Turning to `CCCn1c(/N=C/c2ccc(F)cc2)c(C#N)sc1=S` [Compound 2b, (4E)4-(4-fluorobenzylideneamino)-3-propyl-2,3-dihydro-2-thioxothiazole-5-carbonitrile], in data set [1], the “binding affinity and selectivity (in words)” value was “both high binding affinity and selectivity”; the Ki was 0.03 nM; the “A1/A2A (selectivity)” value worked out at 3393.3. Moreover, the Ki in data set [4] amounted to 102 nM.

In the case of `N#Cc1sc(=S)n(CCc2ccccc2)c1/N=C/c1ccc(Br)cc1` [Compound 2m, (4E)4-(4-bromobenzylideneamino)-3-phenylethyl-2,3-dihydro-2-thioxothiazole-5-carbonitrile], in data set [1], the Ki amounted to 0.067 nM and the “A1/A2A (selectivity)” value turned out to be 3.73. Moreover, the Ki in data set [4] came to 0.25 nM.

On to `CCn1c(/N=C/c2ccc(Cl)cc2)c(C#N)sc1=S` [Compound 2f, (4E)-4-(4-chlorobenzylideneamino)-3-ethyl-2,3-dihydro-2-thioxothiazole-5-carbonitrile], for which the “A1/A2A (selectivity)” value in data set [1] came out at 13.76.

`N#Cc1sc(=S)n(-c2ccccc2)c1/N=C/c1ccc(Br)cc1` [Compound 2n, (4E)4-(4-bromobenzylideneamino)-3-phenyl-2,3-dihydro-2-thioxothiazole-5-carbonitrile]: the melting point lay in the range of 185 to 187 °C. Further, in data set [1], the Ki was 0.004 nM and 0.0042 nM. Besides, the Ki in data set [4] was found to be 186 nM. The catalepsy score in data set [3] (setting [5]) is 0.75±0.144. In addition, the catalepsy score in data set [3] (pre-treatment at 5, 10, 15, 20 mg/kg) was determined as 0.75±0.140. The “catalepsy score, compound alone” value in data set [3] (without haloperidol, up to 120 minutes) is “zero”.
